Assay results from PMC7504721, “Targeting the Initiator Protease of the Classical Pathway of Complement Using Fragment-Based Drug Discovery” (Molecules, 2020).

Molecular target: T1, C1r proenzyme (Homo sapiens, UniProt P00736)
T1 construct: purchased Complement Technology (CompTech)
T1 sequence (P00736 18-705): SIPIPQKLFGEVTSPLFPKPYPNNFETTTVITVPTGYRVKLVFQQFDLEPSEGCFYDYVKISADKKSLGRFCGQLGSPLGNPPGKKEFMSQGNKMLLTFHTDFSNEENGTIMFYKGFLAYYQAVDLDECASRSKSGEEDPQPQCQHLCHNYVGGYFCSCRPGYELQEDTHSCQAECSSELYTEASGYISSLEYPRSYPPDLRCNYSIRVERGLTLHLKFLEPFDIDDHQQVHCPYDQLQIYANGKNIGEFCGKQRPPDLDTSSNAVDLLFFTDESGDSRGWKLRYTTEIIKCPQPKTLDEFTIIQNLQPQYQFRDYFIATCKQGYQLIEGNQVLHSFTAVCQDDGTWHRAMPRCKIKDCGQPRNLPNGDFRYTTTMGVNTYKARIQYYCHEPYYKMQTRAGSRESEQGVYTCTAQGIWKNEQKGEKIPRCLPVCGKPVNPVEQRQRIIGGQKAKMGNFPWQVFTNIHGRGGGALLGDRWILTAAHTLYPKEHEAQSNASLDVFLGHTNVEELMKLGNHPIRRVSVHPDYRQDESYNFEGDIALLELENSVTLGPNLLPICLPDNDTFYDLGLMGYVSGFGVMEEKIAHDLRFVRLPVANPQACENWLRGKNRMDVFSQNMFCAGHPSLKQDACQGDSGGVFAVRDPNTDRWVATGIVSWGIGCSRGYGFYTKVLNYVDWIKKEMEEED
Assay: C1r proenzyme activation (autoactivation) assay with Z-Gly-Arg-sBzl substrate
Assay type: biochemical
Conditions: 10 mM compound, 37 °C, 1 h
Description: Figure 6 CMP-1696 structure activity relationship. (A) CMP-1696 was redocked onto C1r-CCP2-SP (PDB: 1MD8, grey surface representation) and the top nine scored poses are shown. All CMP-1696 poses dock into the S1 subsite (cyan) near the catalytic triad (blue). (B) C1r autoactivation assay. C1r proenzyme undergoes time-dependent autoactivation at 37 °C. Autoactivation was measured using a synthetic substrate for C1r enzyme. The reaction progress of vehicle control (dashed line) or in the presence of 10 mM CMP-1696 (solid line) was monitored for 1 h. (C) Molecular dynamics (MD) simulations of CMP-1696/C1r-CCP2-SP. Root mean square deviation (RMSD) in nm for each of the CMP-1696 poses measured over the 10 ns molecular dynamics simulation. (D) MM/PBSA energy calculations for each pose in the 10 ns MD simulations indicate that pose 1 is the most energetically favorable. […]
Individual stock solutions of 1 mM of Z-Gly-Arg-sBzl (MP Biomedicals, Irvine, CA, USA) and 5,5′-Dithiobis-(2-nitrobenzoic acid) (DTNB) (Sigma-Aldrich, St. Louis, MO, USA) were made by dissolving powder in DMSO to give 10 mM stocks of each compound, which were then diluted to 1 mM in assay buffer (20 mM HEPES pH 7.3, 140 mM NaCl, 0.005% (v/v) Tween-20, 2 mM CaCl2). […] Plates were read at 450 nm using an EnSight multimode plate reader (Perkin-Elmer, Waltham, MA, USA) and the reaction progress was tracked for 1 h.

inhibition of autocatalysis of C1r proenzyme: directly inhibited
SMILES: COCc1nc(-c2ccc(OC3CNC3)cc2)no1 [CMP-1696]
